From patent US10533010B2, “Substituted indole Mcl-1 inhibitors” (Vanderbilt University, priority 2014, dated 2020)

Each compound was assayed against recombinant Mcl-1 (residues 172-327) (Homo sapiens (Human), UniProt Q07820) (assay: Fluorescence polarization anisotropy competition assay (FITC-Bak or FITC-Bim BH3 peptide) with Mcl-1). Settings: Table 2; Ki bins given in nM; FITC-Bak or FITC-Bim peptide competition; Ki converted from IC50; read-out: Ki for Inhibition of Mcl-1.
Chain of recombinant Mcl-1 (residues 172-327) (Q07820 172-327): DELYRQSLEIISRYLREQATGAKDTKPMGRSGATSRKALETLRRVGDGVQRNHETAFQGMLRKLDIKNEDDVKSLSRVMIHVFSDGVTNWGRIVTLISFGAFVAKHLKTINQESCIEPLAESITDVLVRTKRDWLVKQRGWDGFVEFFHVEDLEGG
Assay type: binding
Cc1cc(OCCCc2c3n(c4c(-c5c(C)nn(C)c5C)c(Cl)ccc24)CC(C)CNC3=O)cc(C)c1Cl (stereo not drawn) [I-115, 8-chloro-1-(3-(4-chloro-3,5-dimethylphenoxy)propyl)-4-methyl-7-(1,3,5-trimethyl-1H-pyrazol-4-yl)-2,3,4,5-tetrahydro-1H-[1,4]diazepino[1,2-a]indol-1-one] showed a Ki of under 50 nM. Compound Cc1cc(OCCCc2c3n(c4c(-c5c(C)nn(C)c5C)c(Cl)ccc24)C(C)CCNC3=O)cc(C)c1Cl (stereo not drawn) [I-116, 8-chloro-1-(3-(4-chloro-3,5-dimethylphenoxy)propyl)-5-methyl-7-(1,3,5-trimethyl-1H-pyrazol-4-yl)-2,3,4,5-tetrahydro-1H-[1,4]diazepino[1,2-a]indol-1-one] has a Ki of under 50 nM. Cc1cc(OCCCc2c3n(c4c(-c5c(C)nn(C)c5C)c(Cl)ccc24)CCNC3=O)cc(C)c1Cl [I-117, 7-chloro-10-(3-(4-chloro-3,5-dimethylphenoxy)propyl)-6-(1,3,5-trimethyl-1H-pyrazol-4-yl)-3,4-dihydropyrazino[1,2-a]indol-1(2H)-one] gave a Ki of under 50 nM. With Cc1cc(OCCCc2c3n(c4c(-c5c(C)nn(C)c5C)c(Cl)ccc24)CCCNC3=O)cc(C)c1Cl [I-118, 8-chloro-11-(3-(4-chloro-3,5-dimethylphenoxy)propyl)-7-(1,3,5-trimethyl-1H-pyrazol-4-yl)-2,3,4,5-tetrahydro-1H-[1,4]diazepino[1,2-a]indol-1-one] the Ki was under 50 nM. Compound Cc1cc(OCCCc2c3n(c4c(-c5c(C)nn(C)c5C)c(Cl)ccc24)C(C)[C@@H](C)NC3=O)cc(C)c1Cl (stereo partly drawn) [I-119, (3R)-7-chloro-10-(3-(4-chloro-3,5-dimethylphenoxy)propyl)-3,4-dimethyl-6-(1,3,5-trimethyl-1H-pyrazol-4-yl)-3,4-dihydropyrazino[1,2-a]indol-1(2H)-one] has a Ki of 101 to 299 nM. Compound Cc1cc(OCCCc2c3n(c4c(-c5c(C)nn(C)c5C)c(Cl)ccc24)C[C@@H](C)N(Cc2ccc(C(=O)O)cc2)C3=O)cc(C)c1Cl [I-120, (R)-4-((7-chloro-10-(3-(4-chloro-3,5-dimethylphenoxy)propyl)-3-methyl-1-oxo-6-(1,3,5-trimethyl-1H-pyrazol-4-yl)-3,4-dihydropyrazino[1,2-a]indol-2(1H)-yl)methyl)benzoic acid] has a Ki of under 50 nM. In the case of Cc1cc(OCCCc2c3n(c4c(-c5c(C)nn(C)c5C)c(Cl)ccc24)C[C@@H](C)N(Cc2cccc(C(=O)O)c2)C3=O)cc(C)c1Cl [I-121, (R)-3-((7-chloro-10-(3-(4-chloro-3,5-dimethylphenoxy)propyl)-3-methyl-1-oxo-6-(1,3,5-trimethyl-1H-pyrazol-4-yl)-3,4-dihydropyrazino[1,2-a]indol-2(1H)-yl)methyl)benzoic acid], the Ki is reported as under 50 nM. Cc1cc(OCCCc2c3n(c4c(-c5c(C)nn(C)c5C)c(Cl)ccc24)C[C@@H](C)N(Cc2ccc(C(=O)O)cn2)C3=O)cc(C)c1Cl [I-122, (R)-6-((7-chloro-10-(3-(4-chloro-3,5-dimethylphenoxy)propyl)-3-methyl-1-oxo-6-(1,3,5-trimethyl-1H-pyrazol-4-yl)-3,4-dihydropyrazino[1,2-a]indol-2(1H)-yl)methyl)nicotinic acid] gave a Ki of under 50 nM. For Cc1cc(OCCCc2c3n(c4c(-c5c(C)nn(C)c5C)c(Cl)ccc24)C[C@@H](C)N(Cc2ccc(C(=O)O)o2)C3=O)cc(C)c1Cl [I-123, (R)-5-((7-chloro-10-(3-(4-chloro-3,5-dimethylphenoxy)propyl)-3-methyl-1-oxo-6-(1,3,5-trimethyl-1H-pyrazol-4-yl)-3,4-dihydropyrazino[1,2-a]indol-2(1H)-yl)methyl)furan-2-carboxylic acid], the Ki was under 50 nM. Cc1cc(OCCCc2c3n(c4c(-c5c(C)nn(C)c5C)c(Cl)ccc24)CCC(C)N(Cc2ccc(C(=O)O)cn2)C3=O)cc(C)c1Cl (stereo not drawn) [I-124, 6-((8-chloro-11-(3-(4-chloro-3,5-dimethylphenoxy)propyl)-3-methyl-1-oxo-7-(1,3,5-trimethyl-1H-pyrazol-4-yl)-4,5-dihydro-1H-[1,4]diazepino[1,2-a]indol-2(3H)-yl)methyl)nicotinic acid] gave a Ki of under 50 nM. Cc1cc(OCCCc2c3n(c4c(-c5c(C)nn(C)c5C)c(Cl)ccc24)CCC(C)N(Cc2cccc(C(=O)O)c2)C3=O)cc(C)c1Cl (stereo not drawn) [I-125, 3-((8-chloro-11-(3-(4-chloro-3,5-dimethylphenoxy)propyl)-3-methyl-1-oxo-7-(1,3,5-trimethyl-1H-pyrazol-4-yl)-4,5-dihydro-1H-[1,4]diazepino[1,2-a]indol-2(3H)-yl)methyl)benzoic acid] was tested, and the Ki was under 50 nM. Cc1cc(OCCCc2c3n(c4c(-c5c(C)nn(C)c5C)c(Cl)ccc24)CCC(C)N(Cc2ccc(C(=O)O)o2)C3=O)cc(C)c1Cl (stereo not drawn) [I-126, 5-((8-chloro-1-(3-(4-chloro-3,5-dimethylphenoxy)propyl)-3-methyl-1-oxo-7-(1,3,5-trimethyl-1H-pyrazol-4-yl)-4,5-dihydro-1H-[1,4]diazepino[1,2-a]indol-2(3H)-yl)methyl)furan-2-carboxylic acid] showed a Ki of under 50 nM. Work on Cc1cc(OCCCc2c3n(c4c(-c5c(C)nn(C)c5C)c(Cl)ccc24)CCC(C)N(Cc2ccc(C(=O)O)cc2)C3=O)cc(C)c1Cl (stereo not drawn) [I-127, 4-((8-chloro-11-(3-(4-chloro-3,5-dimethylphenoxy)propyl)-3-methyl-1-oxo-7-(1,3,5-trimethyl-1H-pyrazol-4-yl)-4,5-dihydro-1H-[1,4]diazepino[1,2-a]indol-2(3H)-yl)methyl)benzoic acid] yielded a Ki of under 50 nM. With Cc1cc(OCCCc2c3n(c4c(-c5c(C)nn(C)c5C)c(Cl)ccc24)C(C)CN(Cc2ccc(C(=O)O)o2)C3=O)cc(C)c1Cl (stereo not drawn) [I-128, 5-((7-chloro-10-(3-(4-chloro-3,5-dimethylphenoxy)propyl)-4-methyl-1-oxo-6-(1,3,5-trimethyl-1H-pyrazol-4-yl)-3,4-dihydropyrazino[1,2-a]indol-2(1H)-yl)methyl)furan-2-carboxylic acid] the Ki was under 50 nM. In the case of Cc1cc(OCCCc2c3n(c4c(-c5c(C)nn(C)c5C)c(Cl)ccc24)C(C)CN(Cc2ccc(C(=O)O)cn2)C3=O)cc(C)c1Cl (stereo not drawn) [I-129, 6-((7-chloro-10-(3-(4-chloro-3,5-dimethylphenoxy)propyl)-4-methyl-1-oxo-6-(1,3,5-trimethyl-1H-pyrazol-4-yl)-3,4-dihydropyrazino[1,2-a]indol-2(1H)-yl)methyl)nicotinic acid], the Ki is reported as under 50 nM. Cc1cc(OCCCc2c3n(c4c(-c5c(C)nn(C)c5C)c(Cl)ccc24)C(C)CN(Cc2ccc(C(=O)O)cc2)C3=O)cc(C)c1Cl (stereo not drawn) [I-130, 4-((7-chloro-10-(3-(4-chloro-3,5-dimethylphenoxy)propyl)-4-methyl-1-oxo-6-(1,3,5-trimethyl-1H-pyrazol-4-yl)-3,4-dihydropyrazino[1,2-a]indol-2(1H)-yl)methyl)benzoic acid] showed a Ki of under 50 nM. For Cc1cc(OCCCc2c3n(c4c(-c5c(C)nn(C)c5C)c(Cl)ccc24)C(C)CN(Cc2cccc(C(=O)O)c2)C3=O)cc(C)c1Cl (stereo not drawn) [I-131, 3-((7-chloro-10-(3-(4-chloro-3,5-dimethylphenoxy)propyl)-4-methyl-1-oxo-6-(1,3,5-trimethyl-1H-pyrazol-4-yl)-3,4-dihydropyrazino[1,2-a]indol-2(1H)-yl)methyl)benzoic acid], the Ki was under 50 nM. For Cc1cc(OCCCc2c3n(c4c(-c5c(C)nn(C)c5C)c(Cl)ccc24)CC(C)CN(Cc2ccc(C(=O)O)o2)C3=O)cc(C)c1Cl (stereo not drawn) [I-132, 5-((8-chloro-1-(3-(4-chloro-3,5-dimethylphenoxy)propyl)-4-methyl-1-oxo-7-(1,3,5-trimethyl-1H-pyrazol-4-yl)-4,5-dihydro-1H-[1,4]diazepino[1,2-a]indol-2(3H)-yl)methyl)furan-2-carboxylic acid], the Ki was under 50 nM. For Cc1cc(OCCCc2c3n(c4c(-c5c(C)nn(C)c5C)c(Cl)ccc24)CC(C)CN(Cc2ccc(C(=O)O)cc2)C3=O)cc(C)c1Cl (stereo not drawn) [I-133, 4-((8-chloro-11-(3-(4-chloro-3,5-dimethylphenoxy)propyl)-4-methyl-1-oxo-7-(1,3,5-trimethyl-1H-pyrazol-4-yl)-4,5-dihydro-1H-[1,4]diazepino[1,2-a]indol-2(3H)-yl)methyl)benzoic acid], the Ki was under 50 nM. With Cc1cc(OCCCc2c3n(c4c(-c5c(C)nn(C)c5C)c(Cl)ccc24)CC(C)CN(Cc2ccc(C(=O)O)cn2)C3=O)cc(C)c1Cl (stereo not drawn) [I-134, 6-((8-chloro-11-(3-(4-chloro-3,5-dimethylphenoxy)propyl)-4-methyl-1-oxo-7-(1,3,5-trimethyl-1H-pyrazol-4-yl)-4,5-dihydro-1H-[1,4]diazepino[1,2-a]indol-2(3H)-yl)methyl)nicotinic acid] the Ki was under 50 nM. Cc1cc(OCCCc2c3n(c4c(-c5c(C)nn(C)c5C)c(Cl)ccc24)CC(C)CN(Cc2cccc(C(=O)O)c2)C3=O)cc(C)c1Cl (stereo not drawn) [I-135, 3-((8-chloro-11-(3-(4-chloro-3,5-dimethylphenoxy)propyl)-4-methyl-1-oxo-7-(1,3,5-trimethyl-1H-pyrazol-4-yl)-4,5-dihydro-1H-[1,4]diazepino[1,2-a]indol-2(3H)-yl)methyl)benzoic acid] gave a Ki of under 50 nM. With Cc1cc(OCCCc2c3n(c4c(-c5c(C)nn(C)c5C)c(Cl)ccc24)C[C@H](C)N(Cc2cccc(C(=O)O)c2)C3=O)cc(C)c1Cl [I-136, (S)-3-((7-chloro-10-(3-(4-chloro-3,5-dimethylphenoxy)propyl)-3-methyl-1-oxo-6-(1,3,5-trimethyl-1H-pyrazol-4-yl)-3,4-dihydropyrazino[1,2-a]indol-2(1H)-yl)methyl)benzoic acid] the Ki was under 50 nM. For Cc1cc(OCCCc2c3n(c4c(-c5c(C)nn(C)c5C)c(Cl)ccc24)C[C@H](C)N(Cc2ccc(C(=O)O)cn2)C3=O)cc(C)c1Cl [I-137, (S)-6-((7-chloro-10-(3-(4-chloro-3,5-dimethylphenoxy)propyl)-3-methyl-1-oxo-6-(1,3,5-trimethyl-1H-pyrazol-4-yl)-3,4-dihydropyrazino[1,2-a]indol-2(1H)-yl)methyl)nicotinic acid], the Ki was under 50 nM. Cc1cc(OCCCc2c3n(c4c(-c5c(C)nn(C)c5C)c(Cl)ccc24)C[C@H](C)N(Cc2ccc(C(=O)O)o2)C3=O)cc(C)c1Cl [I-138, (S)-5-((7-chloro-10-(3-(4-chloro-3,5-dimethylphenoxy)propyl)-3-methyl-1-oxo-6-(1,3,5-trimethyl-1H-pyrazol-4-yl)-3,4-dihydropyrazino[1,2-a]indol-2(1H)-yl)methyl)furan-2-carboxylic acid] was tested, and the Ki was under 50 nM.
